Key:
[1] = test system: Akt phosphorylation in PC3-ML cells; assay: Akt phosphorylation in PC3-ML cells (Western blot); type: cell-based, human
Protocol: Bone marrow samples from normal male donors (ages 18-45) were supplied by Cambrex (Poietics™ Donor Program). Samples were centrifuged at 1,500 rpm in order to separate the soluble and cellular phases. The supernatant was filtered using 0.8 μm and 0.22 μm filters in succession. 50 μl of bone marrow aspirate was administered to cells in 1 ml of medium (1:20 final dilution).
For experiments performed in the presence of serum, cells were cultured in DMEM supplemented with 10% FBS and 50 μg/ml gentamycin for 24 hours prior to exposure to bone marrow. For experiments in the absence of serum (starved cells), cells were washed twice with PBS, the growth medium was replaced with serum-free DMEM, and the cells were incubated for 4 hours prior to exposure to bone marrow preparations. When used, AG-1296, a specific inhibitor of PDGF receptors (Rice et al., 1999, Amer. J. Path. 155, 213-21) was added to cultures 30 min. prior to exposure to bone marrowaspirate. IMC-3G3 antibodies were administered as described at pre-treatment times as stated below.

SKLMS-1 cells [2] = assay: PDGF-AA-induced Akt and MAPK phosphorylation in SKLMS-1 cells; type: cell-based, human; conditions: PDGF-AA stimulation of SKLMS-1 cells
Protocol: (§1) Cells were seeded in six-well Falcon tissue culture plates (250,000 cells per well) and allowed to grow overnight. Wells were then rinsed and incubated in serum-free medium. After an overnight incubation to render cells quiescent, the cells were treated with antibodies for 30 minutes at 37° C. followed by addition of PDGF-AA or PDGF-BB and incubation for an additional 10 minutes at 37° C. Cells were then detached and lysed in 200 μL lysis buffer (50 mmol/L Tris-HCl (pH 8.0), 1% Triton X-100, 150 mmol/L NaCl, 1 mmol/L EDTA, 0.1% SDS, 1 mmol/L sodium orthovanadate, and protease inhibitors (Complete Mini, Roche, Mannheim, Germany)). Cell lysates were analyzed by SDS-PAGE and Western blotting using enhanced chemiluminescence reagents and Hyperfilm (Amersham Biosciences).
(§2) Human tumor cell lines expressing PDGFRα were tested to determine the affects of the human anti-PDGFRα antibody on malignant growth in in vitro and in vivo systems. Two such tumor cell lines that express PDGFRα as determined by flow cytometry are SKLMS-1 (leiomyosarcoma) and U118 (glioblastoma). These cell lines also respond to ligand in mitogenic assays and form tumors in mice. SKLMS-1 has the potential for not only paracrine but also autocrine stimulation.

U118 cells [3] = assay: PDGF-AA-induced downstream-effector phosphorylation in U118 cells; type: cell-based, human
Protocol: as §1, §2

U118 cells [4] = assay: PDGF-stimulated [3H]thymidine incorporation in U118 cells; type: cell-based, human; conditions: at 66 nmol/L
Protocol: (§3) The ant-PDGFRα monoclonal antibody was tested for its ability to block PDGFAA-induced mitogenesis of PAE Rα cells. Cells were seeded in 96-well tissue culture plates (1×10^4 cells per well) and grown overnight in 100 μL medium per well. The wells were then rinsed with serum-free medium and cells were serum starved overnight with 75 μL serum-free medium added to each well. IgG was added (25 μL/well) and the plates were incubated for 30 minutes at 37° C. PDGF-AA or PDGF-BB (25 μL/well) was then added and plates were incubated for 18 to 20 hours at 37° C. Plates were incubated for an additional 4 hours after each well received 0.25 μCi [^3H]thymidine (25 μL/well). Antibody, PDGF, and [^3H]thymidine were all diluted in serum-free medium. Cells were then washed with PBS plus 1% bovine serum albumin and detached by treatment with trypsin (100 μL/well). […] After processing the filter, DNA incorporated radioactivity was determined on a scintillation counter (Wallac Microbeta, model 1450).
(§4) Human tumor cell lines expressing PDGFRα were tested to determine the affects of the human anti-PDGFRα antibody on malignant growth in in vitro and in vivo systems. Two such tumor cell lines that express PDGFRα as determined by flow cytometry are SKLMS-1 (leiomyosarcoma) and U118 (glioblastoma). […]

SKLMS-1 cells [5] = assay: PDGF-stimulated [3H]thymidine incorporation in SKLMS-1 cells; type: cell-based, human
Protocol: as §3, §4

[6] = test system: glioblastoma (U118) xenograft; assay: U118 glioblastoma s.c. xenograft growth; type: in vivo, athymic nude mice
From the text: (§5) S.c. tumor xenografts were established by injecting 10×10^6 SKLMS-1 or U118 cells mixed in Matrigel (Collaborative Research Biochemicals, Bedford, Mass.) into female athymic nude mice (Crl:NU/NU-nuBR, Charles River Laboratories, Wilmington, Mass.). Tumors were allowed to reach a mean tumor volume (π/6×longest length×perpendicular width^2) of about 400 mm^3. The mice were randomized into five groups (n=12) and treated by i.p. injection twice weekly for the duration of the study. Group 1 mice were treated with vehicle control (0.9% NaCl, USP for Irrigation, B/Braun). Groups 2 to 4 mice were treated with 6, 20, and 60 mg/kg of the instant anti-PDGFRα antibody. Group 5 mice were treated with 60 mg/kg human IgG (Sigma). Groups treated with 6, 20, or 60 mg/kg anti-PDGFRα antibody or human IgG were given 21.4, 71.4, and 214 mg/kg loading doses, respectively. The loading doses were calculated to achieve a steady state plasma concentration from the first dose (elimination half-life, 7 days) using a dosing regimen of twice weekly. Tumor volumes were evaluated twice weekly and tumor growth in the treatment groups was compared with a repeated measures ANOVA.
(§6) Resected tumors were fixed in QDL fixative at 4° C. for 24 hours. After paraffin embedding and sectioning at 4 μm, formalin-fixed sections were stained with Mayer's H&E (Richard Allen, Kalamazoo, Mich.).

[7] = test system: leiomyosarcoma (SKLMS-1) xenograft; assay: SKLMS-1 leiomyosarcoma s.c. xenograft growth; type: in vivo, athymic nude mice
From the text: as §5, §6

[8] = Elimination half-life used for loading dose calculation; set-up: species or system mice; conditions: mouse, in vivo
From the text: as §5

PDGFRα [9] = molecular target: T1, PDGFRα (Homo sapiens, UniProt P16234); assay: Ligand-induced PDGFRα tyrosine phosphorylation in PAE Rα cells; type: cell-based, porcine aortic endothelial cells stably expressing PDGFRα; set-up: expressed in transfected cells; host or cells: porcine aortic endothelial cells (PAE Rα)
T1 sequence (P16234 24-1089): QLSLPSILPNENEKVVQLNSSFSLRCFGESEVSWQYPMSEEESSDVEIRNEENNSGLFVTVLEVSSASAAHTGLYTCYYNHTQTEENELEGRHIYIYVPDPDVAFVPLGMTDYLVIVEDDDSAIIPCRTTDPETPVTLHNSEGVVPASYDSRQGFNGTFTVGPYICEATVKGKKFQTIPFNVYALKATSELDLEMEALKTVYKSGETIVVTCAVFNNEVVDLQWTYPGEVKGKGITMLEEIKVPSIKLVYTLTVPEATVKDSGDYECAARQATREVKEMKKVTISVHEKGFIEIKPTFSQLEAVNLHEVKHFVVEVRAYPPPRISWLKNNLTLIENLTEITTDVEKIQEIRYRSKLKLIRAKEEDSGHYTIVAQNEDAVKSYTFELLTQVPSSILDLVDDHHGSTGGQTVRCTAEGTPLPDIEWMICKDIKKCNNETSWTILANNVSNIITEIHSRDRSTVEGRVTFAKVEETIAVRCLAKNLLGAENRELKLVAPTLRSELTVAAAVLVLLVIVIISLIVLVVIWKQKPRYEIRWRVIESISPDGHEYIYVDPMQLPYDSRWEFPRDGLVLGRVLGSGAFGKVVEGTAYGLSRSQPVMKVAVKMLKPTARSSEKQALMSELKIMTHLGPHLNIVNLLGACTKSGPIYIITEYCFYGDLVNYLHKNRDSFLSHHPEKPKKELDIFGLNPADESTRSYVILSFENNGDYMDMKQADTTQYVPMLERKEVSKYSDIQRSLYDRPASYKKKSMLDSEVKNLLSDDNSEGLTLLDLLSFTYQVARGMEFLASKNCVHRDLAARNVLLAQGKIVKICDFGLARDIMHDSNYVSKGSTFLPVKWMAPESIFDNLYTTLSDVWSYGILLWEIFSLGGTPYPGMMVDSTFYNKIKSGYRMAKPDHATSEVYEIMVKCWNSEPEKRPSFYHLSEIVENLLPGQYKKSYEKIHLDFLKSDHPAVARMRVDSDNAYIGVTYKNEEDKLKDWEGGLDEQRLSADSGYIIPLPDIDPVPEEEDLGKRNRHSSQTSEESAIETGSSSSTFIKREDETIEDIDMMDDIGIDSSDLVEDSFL
Protocol: as §1

PDGFRα [10] = molecular target: T1, PDGFRα; assay: PDGFRα phosphotyrosine level in U118 tumors in vivo; set-up: Two such tumor cell lines that express PDGFRα as determined by flow cytometry are SKLMS-1 (leiomyosarcoma) and U118 (glioblastoma); endogenous in cells; host or cells: U118 human glioblastoma cells grown as s.c. xenograft tumors in athymic nude mice; species or system mice with U118 tumors; conditions: 214 mg/kg loading dose, 60 mg/kg 72 hours later; harvested at 168 hours; relative to human IgG control
Protocol: The level of receptor phosphotyrosine in U118 tumors was evaluated one week after treatment with anti-PDGFRα antibody or human IgGt. Mice with established U118 tumors (500 mm^3) were treated with a 214 mg/kg loading dose followed 72 hours later by a 60 mg/kg maintenance dose of antibody. Tumors were harvested from mice one week (168 hours) after the first antibody injection (at a time before tumor regression is observed on average; see FIG. 18A) and homogenized in phosphorylation assay lysis buffer (see above). The lysates were centrifuged twice at 14,000 rpm and the protein concentration for the collected supernatant was determined (Bio-Rad protein assay, Bio-Rad, Hercules, Calif.). Lysate (4 mg) from each sample was immunoprecipitation using anti-PDGFRα antibody. Immunoprecipitated human PDGFRα was then immunoblotted with either an anti-PDGFR or anti-phosphotyrosine antibody.

With “IMC-3G3: human anti-PDGFRα monoclonal antibody; heavy chain variable region SEQ ID NO:8, light chain variable region SEQ ID NO:16” the “effect on PDGF-BB stimulated Akt phosphorylation” value ([1]; 20 μg/ml, pre-incubation 30 minutes, 30 ng/ml PDGF-BB) was “neutralized”, the “inhibition of bone marrow induced Akt phosphorylation” value ([1]; 30-minute incubation time) was “about 40%” and the “inhibitory effect on Akt phosphorylation, 120-minute vs 30-minute preincubation” value ([1]; bone marrow induced) was “significantly more effective”. For the same substance, the “inhibition of Akt phosphorylation” value (SKLMS-1 cells [2]) was 100%, the “inhibition of MAPKs phosphorylation” value (SKLMS-1 cells [2]) was “about 80%” and the “inhibition of phosphorylation in U118 cells” value (U118 cells [3]) was “effective inhibitor of phosphorylation”. For the same substance, the “inhibition of PDGF-BB-stimulated mitogenic response” value (U118 cells [4]) was 40%, the PDGF-BB-stimulated mitogenic response (SKLMS-1 cells [5]) was “inhibited” and the tumor regression ([6]; 6 mg/kg) was 4 of 12. For the same substance, the “% T/C at end of study” value ([6]; 6 mg/kg i.p. twice weekly) was 67%, the tumor regression ([6]; 20 mg/kg) was 5 of 11 and the “% T/C at end of study” value ([6]; 20 mg/kg i.p. twice weekly) was 63%. The tumor regression ([6]; 60 mg/kg) was 10 of 12, the “% T/C at end of study” value ([6]; 60 mg/kg i.p. twice weekly) was 35% and the “histologic examination of xenografts” value ([6]; 60 mg/kg, compared with saline-control group) was “fewer viable tumor cells”. The “final % TIC” value ([7]; 6 mg/kg i.p. twice weekly) was 66%, the “final % TIC” value ([7]; 20 mg/kg i.p. twice weekly) was 57% and the “final % TIC” value ([7]; 60 mg/kg i.p. twice weekly) was 31%. For the same substance, the tumor regressions ([7]; 6, 20 and 60 mg/kg) was “no tumor regressions”, the “histologic examination of xenografts” value ([7]; day 25, compared with saline-control group) was “reduction in the amount of viable tumor cells and cellular packing” and the elimination half-life [8] was 170 h. For the same substance, the PDGF-BB-induced receptor phosphorylation (PDGFRα [9]) was “near background levels”, the IC50 (PDGFRα [9]; read-out: concentration for 50% inhibition of PDGFRα phosphorylation) was 0.25 nM and the “level of PDGFRα phosphotyrosine in U118 tumors” value (PDGFRα [10]) was “reduction in the level of PDGFRα phosphotyrosine”.
